Data from ChEMBL document CHEMBL4270599, “Synthesis of a 3'-C-ethynyl-β-d-ribofuranose purine nucleoside library: Discovery of C7-deazapurine analogs as potent antiproliferative nucleosides” (Eur J Med Chem, 2018).
Active and inactive are the calls of the source. The calls are words filed in the database; no cut-off is given here.

What was measured:
Homo sapiens [1] = assay: Antitumor activity against human MDA-MB-231-LM2 cells xenografted in SCID mouse assessed as decrease in tumor size at 0.3 mg/kg, it 3 times a week for 2 consecutive weeks starting 10 days post inoculation; format: functional, organism-based
[2] = Antitumor activity against human MDA-MB-231-LM2 cells xenografted in SCID mouse assessed as tumor weight at 0.3 mg/kg, it 3 times a week for 2 consecutive weeks starting 10 days post inoculation measured at day 35 (reference value: 551 +/- 74 mg); format: functional
Homo sapiens [3] = assay: Antitumor activity against human MDA-MB-231-LM2 cells xenografted in SCID mouse assessed as inhibition of lung metastasis at 0.3 mg/kg, it 3 times a week for 2 consecutive weeks starting 10 days post inoculation measured at day 34; format: functional, organism-based
UACC-62 = assay: Growth inhibition of human UACC62 cells assessed as cell growth at 10^-4 M incubated for 48 hrs by sulforhodamine B assay relative to control; format: functional; conditions: UACC-62, 48 h, read-out: Activity
RXF 393 = assay: Growth inhibition of human RXF393 cells assessed as cell growth at 10^-5 M incubated for 48 hrs by sulforhodamine B assay relative to control; format: functional; conditions: RXF 393, 48 h, read-out: Activity
SF-295 = assay: Growth inhibition of human SF295 cells assessed as cell growth at 10^-4 M incubated for 48 hrs by sulforhodamine B assay relative to control; format: functional; conditions: SF-295, 48 h, read-out: Activity
SK-MEL-28 = assay: Growth inhibition of human SK-MEL-28 cells assessed as cell growth at 10^-4 M incubated for 48 hrs by sulforhodamine B assay relative to control; format: functional; conditions: SK-MEL-28, 48 h, read-out: Activity

In the case of `C#C[C@@]1(O)[C@@H](CO)O[C@@H](n2cc(Cl)c3c(N)ncnc32)[C@@H]1O`, the Activity (Homo sapiens [1]) is reported as “Active”, the Activity [2] is reported as 241 mg and the Activity (Homo sapiens [3]) is reported as “Active”.
Compound `C#C[C@@]1(O)[C@@H](CO)O[C@@H](n2ccc3c(N)ncnc32)[C@@H]1O` has a growth at 100 µM (UACC-62) of -65%, a growth at 10 µM (RXF 393) of -45% and a growth at 100 µM (SF-295) of -44%. For the same compound, the growth at 100 µM (SK-MEL-28) was -47%.
Work on `C#C[C@@]1(O)[C@@H](CO)O[C@@H](n2cc(F)c3c(N)ncnc32)[C@@H]1O` yielded a growth at 100 µM (UACC-62) of -78%, a growth at 10 µM (RXF 393) of -46% and a growth at 100 µM (SF-295) of -74%. For the same compound, the growth at 100 µM (SK-MEL-28) was 19%.
